Assay results reported in ChEMBL document CHEMBL1150437, “Synthesis and neuraminidase inhibition studies of 4-azido, amino, and acetamido substituted sialosides” (Bioorg Med Chem Lett, 1994).

Tested on: unidentified influenza virus
Test: Compound was tested for inhibition of Influenza neuraminidase
Assay type: functional, organism-based

| SMILES | Ki [µM] |
| --- | --- |
| CC(=O)N[C@H]1[C@H]([C@H](O)[C@H](O)CO)O[C@@](OC[C@@H]2O[C@H](O)[C@@H](O)[C@@H](O)[C@H]2O)(C(=O)O)C[C@H]1N | 150 |
| CC(=O)NC1C(N)CC(SC(C)C2OC(O)C(O)C(O)C2O)(C(=O)O)OC1[C@H](O)[C@H](O)CO (some centres not stated) | 50 |
